Assay: Dissolution test: solubility of the compound in a solvent at 25° C.
[1] = solvent PGMEA/PGME (90% by mass/10% by mass)
[2] = solvent Diethylene glycol monobutyl ether acetate

Procedure: By the following method, the solubility of the compound represented by General Formula (I) in a solvent was investigated.
Then, solids were removed using a 0.5 μm TEFLON (registered trademark) filter. Thereafter, the obtained filtrate was caused to volatilize for 3 hours at 150° C. in a vacuum, and the content of residues was measured, thereby quantifying the content of solids dissolved in the solvent.

c1ccc(Nc2nc(Nc3ccccc3)nc(Nc3ccccc3)n2)cc1 [Compound A-1]
Solubility (solvent Toluene): < 0.5% by mass

N#Cc1ccc(Nc2nc(Nc3ccc(C#N)cc3)nc(Nc3ccc(C#N)cc3)n2)cc1 [Compound A-2]
Solubility (solvent Cyclohexyl methyl ether): < 0.5% by mass
Solubility (solvent PGMEA): Less than 0.5% by % by mass

CC(=O)Nc1ccc(Nc2nc(Nc3ccc(NC(C)=O)cc3)nc(Nc3ccc(NC(C)=O)cc3)n2)cc1 [Compound A-3]
Solubility (solvent Cyclohexanone): < 0.5% by mass
Solubility (solvent PGME): < 0.5% by mass
Solubility (solvent PGMEA): Less than 0.5% by % by mass

c1ccc2cc(Nc3nc(Nc4ccc5ccccc5c4)nc(Nc4ccc5ccccc5c4)n3)ccc2c1 [Compound A-4]
Solubility (solvent Butyl acetate): < 0.5% by mass
Solubility (solvent PGME): < 0.5% by mass
Solubility (solvent PGMEA): Less than 0.5% by % by mass

Brc1ccc(Nc2nc(Nc3ccc(Br)cc3)nc(Nc3ccc(Br)cc3)n2)cc1 [Compound A-5]
Solubility (solvent 3-methoxybutyl acetate): < 0.5% by mass
Solubility (solvent PGMEA): Less than 0.5% by % by mass

O=[N+]([O-])c1ccc(Nc2nc(Nc3ccc([N+](=O)[O-])cc3)nc(Nc3ccc([N+](=O)[O-])cc3)n2)cc1 [Compound A-6]
Solubility (solvent Cyclohexyl acetate): < 0.5% by mass
Solubility (solvent PGMEA): Less than 0.5% by % by mass

c1ccc(-c2ccc(-c3ccc(Nc4nc(Nc5ccc(-c6ccc(-c7ccccc7)cc6)cc5)nc(Nc5ccc(-c6ccc(-c7ccccc7)cc6)cc5)n4)cc3)cc2)cc1 [Compound A-7]
Solubility (solvent PGMEA): Less than 0.5% by % by mass
Solubility (solvent PGMEA/PGME (70% by mass/30% by mass)): < 0.5% by mass
Solubility [1]: < 0.5% by mass

N#Cc1ccc(-c2ccc(Nc3nc(Nc4ccc(-c5ccc(C#N)cc5)cc4)nc(Nc4ccc(-c5ccc(C#N)cc5)cc4)n3)cc2)cc1 [Compound A-8]
Solubility (solvent Cyclopentanone): < 0.5% by mass
Solubility (solvent PGMEA): Less than 0.5% by % by mass

CSc1ccc(Nc2nc(Nc3ccc(SC)cc3)nc(Nc3ccc(SC)cc3)n2)cc1 [Compound A-9]
Solubility (solvent Cyclobutyl ether): < 0.5% by mass
Solubility [2]: < 0.5% by mass
Solubility (solvent PGMEA): Less than 0.5% by % by mass

CN(c1ccccc1)c1nc(Nc2ccccc2)nc(Nc2ccccc2)n1 [Compound A-10]
Solubility (solvent Anisole): < 0.5% by mass
Solubility (solvent PGMEA): Less than 0.5% by % by mass
Solubility (solvent Propylene glycol diacetate): < 0.5% by mass

c1ccc(Nc2nc(Nc3ccccc3)nc(Oc3ccccc3)n2)cc1 [Compound A-11]
Solubility (solvent Dipropylene glycol dimethyl ether): < 0.5% by mass
Solubility (solvent PGMEA): Less than 0.5% by % by mass

c1ccc(Nc2nc(Nc3ccccc3)nc(Sc3ccccc3)n2)cc1 [Compound A-12]
Solubility (solvent 3-methoxybutyl acetate): < 0.5% by mass
Solubility [2]: < 0.5% by mass
Solubility (solvent PGMEA): Less than 0.5% by % by mass

O=C(Nc1ccccc1)c1cc(C(=O)Nc2ccccc2)cc(C(=O)Nc2ccccc2)c1 [Compound A-14]
Solubility (solvent Ethyl lactate): < 0.5% by mass
Solubility (solvent PGMEA): Less than 0.5% by % by mass

O=S(=O)(Nc1ccccc1)c1cccc2c(S(=O)(=O)Nc3ccccc3)cccc12 [Compound A-15]
Solubility (solvent Cyclohexyl acetate): < 0.5% by mass
Solubility (solvent PGMEA): Less than 0.5% by % by mass
Solubility [1]: < 0.5% by mass

O=S(=O)(Nc1ccccc1)c1cccc2c(S(=O)(=O)Nc3ccccc3)cccc12 [Compound A-16]
Solubility (solvent 3-methoxybutyl acetate): < 0.5% by mass
Solubility (solvent PGMEA/PGME (80% by mass/20% by mass)): < 0.5% by mass

O=S(=O)(Nc1ccccc1)c1cccc2c(S(=O)(=O)Nc3ccccc3)cccc12 [Compound A-17]
Solubility (solvent Cyclopentanone/PGME (90% by mass/10% by mass)): < 0.5% by mass

c1ccc(Nc2nc(Nc3ccccc3)nc(Nc3ccc(-c4ccc(-c5ccccc5)cc4)cc3)n2)cc1 [Compound A-19]
Solubility (solvent PGMEA): Less than 0.5% by % by mass

c1ccc(-c2ccc(-c3ccc(Nc4nc(Nc5ccc(-c6ccc(-c7ccccc7)cc6)cc5)nc(Nc5nc6ccccc6s5)n4)cc3)cc2)cc1 [Compound A-20]
Solubility (solvent PGMEA): Less than 0.5% by % by mass

c1ccc(-c2ccc(-c3ccc(-c4ccc(Nc5nc(Nc6ccc(-c7ccc(-c8ccc(-c9ccccc9)cc8)cc7)cc6)nc(Nc6ccc(-c7ccc(-c8ccc(-c9ccccc9)cc8)cc7)cc6)n5)cc4)cc3)cc2)cc1 [Compound A-21]
Solubility (solvent PGMEA): Less than 0.5% by % by mass

Clc1ccc(-c2ccc(Nc3nc(Nc4ccc(-c5ccc(Cl)cc5)cc4)nc(Nc4ccc(-c5ccc(Cl)cc5)cc4)n3)cc2)cc1 [Compound A-22]
Solubility (solvent PGMEA): Less than 0.5% by % by mass

CN(c1ccccc1)c1nc(Nc2ccc(-c3ccc(-c4ccccc4)cc3)cc2)nc(Nc2ccc(-c3ccc(-c4ccccc4)cc3)cc2)n1 [Compound A-23]
Solubility (solvent PGMEA): Less than 0.5% by % by mass

N#Cc1ccc(-c2ccc(Nc3nc(Nc4ccc(-c5ccc(C#N)cc5)cc4)nc(Oc4ccccc4)n3)cc2)cc1 [Compound A-24]
Solubility (solvent PGMEA): Less than 0.5% by % by mass
